From article PMC12388496, “Discovery of (E)-1,3-Diphenyl-2-Propen-1-One Derivatives as Potent and Orally Active NLRP3 Inflammasome Inhibitors for Colitis” (Molecules, 2025)

Key:
[1] = tested on: IL-1β secretion in BMDM cells (NLRP3 inflammasome); assay: ELISA of IL-1β secretion in LPS/nigericin-treated BMDM cells; assay type: cell-based; conditions: Mus musculus; 20 µM; LPS/nigericin-treated BMDM cells; mean ± S.E.M. (n = 3); read-out: IL-1β Inhibition Rate (%)
Experimental: When L929 cells reach the logarithmic phase, collect the cell supernatant. Filter the supernatant using a 0.22 μm filter and store it at −20 °C for future use. The 7-week-old C57BL/6 mice were selected as the source of primary bone marrow macrophages. The mice were euthanized using the cervical dislocation method. The ends of the femurs were cut, and the bone marrow was flushed into a 15 mL centrifuge tube using a 5 mL syringe. Once all the bone marrow was collected, an appropriate amount of red blood cell lysis buffer was added to the centrifuge tube. The mixture was incubated for 3–5 min, with repeated pipetting to thoroughly lyse the red blood cells. The cells were then centrifuged and collected. Add 30–40% L929 cell supernatant or M-CSF stimulatory factor to the culture dish. Culture the cells in a cell incubator at 37 °C with 5% CO2. Observe the cell condition daily, and once most cells have adhered to the surface, proceed with subsequent experiments.
Inoculate 1.0 × 10^5 BMDMs cells per well into a 96 well plate and culture overnight. Stimulate the cells with lipopolysaccharide (LPS) at a concentration of 0.2 μg/mL for 3 h, then add different concentrations of the test compounds and incubate for 30 min. Finally, add Nigericin at a concentration of 10 μM to continue the induction for 30 min. Collect the cell supernatant and measure the IL-1β secretion level in the supernatant using an ELISA kit, following the instructions provided, and calculate the IC50 value based on the relevant calculations. To ensure the accuracy and reliability of the experimental results, all experiments were repeated three times, with each experiment performed independently.

[2] = MTT assay, HepaRG cytotoxicity; assay type: cell-based; conditions: human, HepaRG cells, n = 3
Experimental: HepaRG cells in the logarithmic growth phase (10^5 cells/mL), inoculate them into a 96-well plate, and culture overnight in a 37 °C, 5% CO2 incubator. Add compounds at different concentrations and continue culturing for 24 h. Add 20 μL of MTT solution, incubate for 4 h, discard the supernatant, and add DMSO to dissolve.

Row | Structure (SMILES) | inhibition at 20 µM [1] [%] | IC50 at 24 h [2] [µM]
1 | O=C(/C=C/c1ccccc1O)c1ccccc1 [Compound F1] | 52.1 ± 3.72 | > 50
2 | CC(C)(O)c1coc(S(=O)(=O)NC(=O)Nc2c3c(cc4c2CCC4)CCC3)c1 [MCC950, reference compound] | – | > 50
3 | O=C(/C=C/c1ccc(O)cc1)c1ccccc1Cl [Compound W5, (E)-1-(2-chlorophenyl)-3-(4-hydroxyphenyl)propion-2-en-1-one] | 51.7 ± 2.23 | > 50
4 | O=C(/C=C/c1ccccc1O)c1cccc2ccccc12 [Compound F15, (E)-3-(2-hydroxyphenyl)-1-(naphthale-1-yl)propyl-2-en-1-one] | 91.7 ± 5.89 | > 50
5 | O=C(/C=C/c1cccc(O)c1)c1ccc(Br)cc1 [Compound F10, (E)-1-(4-bromophenyl)-3-(3-hydroxyphenyl)propyl-2-en-1-one] | 24.2 ± 7.91 | > 50
6 | O=C(/C=C/c1cccc(O)c1)c1ccccc1 [Compound F4, (E)-3-(3-hydroxyphenyl)-1-phenylpropyl-2-en-1-one] | 25.6 ± 9.03 | > 50
7 | COc1cccc(C(=O)/C=C/c2ccc(O)cc2)c1 [Compound W2, (E)-3-(4-hydroxyphenyl)-1-(3-methoxyphenyl)propyl-2-en-1-one] | 67 ± 1.23 | > 50
8 | COc1ccc(C(=O)/C=C/c2cccc(O)c2)cc1 [Compound F6, (E)-3-(3-hydroxyphenyl)-1-(4-methoxyphenyl)propyl-2-en-1-one] | 25.1 ± 2.84 | > 50
9 | O=C(/C=C/c1ccc(O)cc1)c1ccccc1 [Compound W1, (E)-3-(4-hydroxyphenyl)-1-phenylprop-2-en-1-one] | 17.8 ± 3.45 | > 50
10 | O=C(/C=C/c1ccc(O)cc1)c1ccc(Cl)cc1 [Compound W7, (E)-1-(4-chlorophenyl)-3-(4-hydroxyphenyl)propyl-2-en-1-one] | 24.3 ± 3.67 | > 50
11 | O=C(/C=C/c1ccccc1O)c1ccccc1Cl [Compound F7, (E)-1-(2-chlorophenyl)-3-(2-hydroxyphenyl)propyl-2-en-1-one] | 94.8 ± 3.29 | > 50
12 | COc1ccc(C(=O)/C=C/c2ccc(O)cc2)cc1 [Compound W4, (E)-3-(4-hydroxyphenyl)-1-(4-methoxyphenyl)propyl-2-en-1-one] | 6.89 ± 4.78 | > 50
13 | Cc1ccc(C(=O)/C=C/c2ccc(O)cc2)c(C)c1 [Compound W8, (E)-1-(2,4-dimethylphenyl)-3-(4-hydroxyphenyl)propyl-2-en-1-one] | 88.9 ± 5.91 | > 50
14 | O=C(/C=C/c1ccccc1O)c1ccc(Br)cc1 [Compound F9, (E)-1-(4-bromophenyl)-3-(2-hydroxyphenyl)propyl-2-en-1-one] | 28.4 ± 5.76 | > 50
15 | O=C(/C=C/c1ccccc1O)c1cccs1 [Compound F16, (E)-3-(2-hydroxyphenyl)-1-(thiophene-2-yl)propion-2-en-1-one] | 92.6 ± 3.23 | > 50
16 | Cc1ccc(C(=O)/C=C/c2cccc(O)c2)cc1C [Compound F12, (E)-1-(3,4-dimethylphenyl)-3-(3-hydroxyphenyl)propyl-2-en-1-one] | 15.4 ± 4.13 | > 50
17 | Cc1ccc(C(=O)/C=C/c2ccccc2O)c(C)c1 [Compound F11, (E)-1-(2,4-dimethylphenyl)-3-(2-hydroxyphenyl)propyl-2-en-1-one] | 88.7 ± 9.22 | > 50
18 | O=C(/C=C/c1ccc(O)cc1)c1cccc(F)c1 [Compound W10, (E)-1-(3-fluorophenyl)-3-(4-hydroxyphenyl)propyl-2-en-1-one] | 33.6 ± 3.21 | > 50
19 | Cc1ccc(C(=O)/C=C/c2ccc(O)cc2)cc1C [Compound W9, (E)-1-(3,4-dimethylphenyl)-3-(4-hydroxyphenyl)propyl-2-en-1-one] | 10.3 ± 6.43 | > 50
20 | O=C(/C=C/c1ccc(O)cc1)c1cccc2ccccc12 [Compound W11, (E)-3-(4-hydroxyphenyl)-1-(naphthalene-1-yl)propyl-2-en-1-one] | 88.3 ± 7.01 | > 50
21 | O=C(/C=C/c1ccccc1O)c1ccc(Cl)cc1 [Compound F8, (E)-1-(4-chlorophenyl)-3-(2-hydroxyphenyl)propyl-2-en-1-one] | 45.9 ± 3.45 | > 50
22 | COc1cccc(C(=O)/C=C/c2cccc(O)c2)c1 [Compound F3, (E)-3-(3-hydroxyphenyl)-1-(3-methoxyphenyl)propyl-2-en-1-one] | 93.4 ± 2.98 | > 50
23 | O=C(/C=C/c1ccc(O)cc1)c1cccc(Cl)c1 [Compound W3, (E)-1-(3-chlorophenyl)-3-(4-hydroxyphenyl)propyl-2-en-1-one] | 21.8 ± 9.56 | > 50
24 | O=C(/C=C/c1cccc(O)c1)c1cccc(F)c1 [Compound F13, (E)-1-(3-fluorophenyl)-3-(3-hydroxyphenyl)propyl-2-en-1-one] | 34 ± 8.74 | > 50
